Patent publication US20110105603A1, “COMPOSITIONS AND METHODS FOR TREATING BETA-AMYLOID RELATED DISEASES” (priority 2009, published 2011)

Columns and labels:
[1] = target: Cathepsin B (Homo sapiens, UniProt P07858); assay: biochemical
[2] = tested on: brain Aβ40 and brain Aβ42; assay: Example 8: brain Aβ40 and Aβ42 ELISA after oral gavage in wild-type guinea pigs; format: in vivo; conditions: guinea pig, 10 mg/kg/day oral, 7 days
[3] = tested on: Aβ40 and Aβ42; assay: Example 9: brain, CSF and plasma Aβ after once-a-day gavage in guinea pigs; format: in vivo, guinea pig; conditions: once-a-day for one week oral
Excerpt: Guinea Pigs. Guinea Pigs (Harley strain, average weight 400 g corresponding to animals about 6 weeks old) were obtained from Charles River (Wilmington, Mass.). The animals were given free access to standard chow and water before and during the experiment. Gavage Formulation: Delivering a drug by gavage offers the advantage of accurate dosing but is traumatic and thus only suitable for relatively short dosing periods. Gavage delivery was used for the guinea pig work. E64d was resuspended in DMSO at indicated concentrations (see Figures, and below) and guinea pigs were gavaged daily using a feeding tube. Vehicle control animals were provided DMSO alone. Guinea Pig Gavage Dosing: Guinea pigs were gavaged daily for one week. Guinea pigs were lightly anesthetized with isoflurane prior to gavaging. 250 μl of compound solution was gavaged daily per animal and animals were sacrificed 4 hrs after the last dosing.

[4] = tested on: cathepsin B; assay: Example 9: brain cathepsin B activity in guinea pigs; format: in vivo, guinea pig; conditions: once-a-day oral
Protocol: (§1) Guinea Pig Gavage Dosing: Guinea pigs were gavaged daily for one week. Guinea pigs were lightly anesthetized with isoflurane prior to gavaging. 250 μl of compound solution was gavaged daily per animal and animals were sacrificed 4 hrs after the last dosing.
The brain cathepsin B activity in guinea pigs was measured as follows: Cathepsin B activity was determined using a fluorometric assay kit from Abcam, Inc. (catalog ab65300; Cambridge, Mass.) as described by the manufacturer.

[5] = tested on: BACE1; assay: Example 9: brain BACE1 activity in guinea pigs; format: in vivo, guinea pig; conditions: once-a-day oral
Protocol: as §1, with “dosing. The brain BACE1 activity in guinea pigs was measured by Beta secretase activity was determined using a fluorometric assay kit from Abcam (ab65357) as described by the manufacturer.” for “dosing.”

[6] = oral; cited from earlier work
[7] = cited from earlier work
[8] = tested on: healthy human volunteers; conditions: single or continuous 1 week oral administration at about 5 mg/kg/day; cited from earlier work
[9] = animals, radioactive AB-007; cited from earlier work
[10] = tested on: rats; conditions: cited from earlier work
[11] = tested on: dogs; conditions: cited from earlier work
[12] = tested on: transgenic APPlon mice; assay: Example 9: Morris water maze, spatial memory deficit in transgenic APPlon mice; conditions: E64d-doped chow 1 or 3 months, either age group
Excerpt: Transgenic AD Mice. Transgenic mice expressing human APP containing the wt β-secretase site and the London mutant γ-secretase site sequences (also called “transgenic APPlon mice”, or “London APP mice”) were generated at the Ralph A. Johnson VA Medical Center (Charleston, S.C.) by methods previously described, see e.g., Hook, et al. (2008) J. Biol. Chem. 283:7745-7753. Briefly, APPLn was generated using site-directed mutagenesis to insert the V7171 London mutation into human APP cDNA. The mouse strain was created in a C57BL/6 mouse background using the Thy-1.2 expression cassette driven by the Thy-1 promoter containing an SV40 polyadenylation site. Mice were given free access to food and water before and during the experiment. […]
The memory deficit in transgenic APPln mice (APPlon mice) was measured using the Morris water maze test. Briefly, the spatial memory capability of each animal was assessed by the Morris water maze test as described e.g., by S. Mueller-Steiner (2006) Neuron 51:703-714; using catalog part no. […] Two days following the nonspatial pretraining, the hidden platform was placed in the center of one quadrant of the pool, the animal was released facing the pool wall in a random fashion, the time was recorded (latency period), and the distance traveled to reach the platform was measured using video recording (Smart Video Tracking System; SD Instruments).

[13] = tested on: dogs with canine dementia; conditions: in one month; cited from earlier work

SMILES: [2H]C([2H])([2H])C([2H])(C[C@H](NC(=O)[C@H]1O[C@@H]1C(=O)O)C(=O)NCCC(C)C)C([2H])([2H])[2H] [Compound 2B, (2S,3S)-3-((S)-4,5,5,5-d4-1-(isopentylamino)-1-oxo-4-(methyl-d3)pentan-2-ylcarbamoyl)oxirane-2-carboxylic acid]
- IC50 [1]: 1.5 nM

SMILES: [2H]C([2H])([2H])C(C)C[C@H](NC(=O)[C@H]1O[C@@H]1C(=O)O)C(=O)NCCC(C)C (stereo partly drawn) [Compound 1B, (2S,3S)-3-((S)-1-(Isopentylamino)-4-methyl-d3-1-oxopentan-2-ylcarbamoyl)oxirane-2-carboxylic acid]
- IC50 [1]: 2 nM

SMILES: [2H][C@@](CC(C)C)(NC(=O)[C@H]1O[C@@H]1C(=O)O)C(=O)NCCC(C)C [Compound 3B, (2S,3S)-3-((S)-2-d1-1-(isopentylamino)-4-methyl-1-oxopentan-2-ylcarbamoyl)oxirane-2-carboxylic acid]
- IC50 [1]: 1.9 nM

SMILES: CC(C)CCNC(=O)[C@H](CC(C)C)NC(=O)[C@H]1O[C@@H]1C(=O)O [Compound E64c]
- IC50 [1]: 1 nM

SMILES: CCOC(=O)[C@H]1O[C@@H]1C(=O)N[C@@H](CC(C)C)C(=O)NCCC(C)C (relative stereo) [AB-007, (2S,3S)-trans-epoxysuccinyl-L-leucyl-amido-3-methylbutane ethyl ester]
- reduction of brain Aβ42 relative to vehicle control [2]: 42%
- CSF Aβ [3]: dose response reduction
- CSF Aβ(42) [3]: dose response reduction
- brain Aβ(40) [3]: dose response reduction
- brain Aβ(42) [3]: dose response reduction
- plasma Aβ(40) [3]: dose response reduction
- plasma Aβ(42) [3]: dose response reduction
- brain cathepsin B activity [4]: dose response reduction
- brain BACE1 activity [5]: increase
- conversion in the gut to E64c [6]: rapidly and completely converted
- effect on the central nervous system ([7]; high oral doses (500 mg/kg and 1 g/kg)): depress the central nervous system, causing sedation and mild inhibition of pentetrazol-induced seizure
- influence on vision or hearing ([7]; maximal intravenous or oral doses, rats): do not influence vision or hearing
- hematological tests, blood chemistry, urinalyses [8]: no changes
- pulse, blood pressure, body temperature, grip force, electrocardiogram, physician observations [8]: no change
- concentration in all other organs, including the brain [9]: corresponding to the plasma concentration or concentrations lower than plasma
- kidney concentration relative to plasma concentration [9]: ~12 times
- subacute no-effect dose ([10]; oral, rats): under 80 mg/kg/day
- chronic toxicity no-effect dose level ([10]; rat, in vivo): below 2 mg/kg/day
- target organs for toxicity ([10]; rat, in vivo): liver and kidney
- hepatic injury, species sensitivity ([10]; rats versus other species): hepatic injury seen in rats does not occur in other species
- chronic toxicity no-effect dose level ([11]; dog, in vivo): < 5 mg/kg/day
- subacute no-effect dose ([11]; oral, dogs): < 40 mg/kg/day
- mean latency period relative to age-matched controls [12]: significantly reduced

SMILES: [2H]C([2H])([2H])C([2H])(CCNC(=O)[C@H](CC(C)C)NC(=O)[C@H]1O[C@@H]1C(=O)OCC)C([2H])([2H])[2H] [Compound E64d7]
- CSF Aβ [3]: dose response reduction
- CSF Aβ(42) [3]: dose response reduction
- brain Aβ(40) [3]: dose response reduction
- brain Aβ(42) [3]: dose response reduction
- plasma Aβ(40) [3]: dose response reduction
- plasma Aβ(42) [3]: dose response reduction
- brain cathepsin B activity [4]: dose response reduction
- brain BACE1 activity [5]: increase

SMILES: C#CCN(C)[C@H](C)Cc1ccccc1 [Anipryl]
- affected dogs with improved behavior [13]: about 75%
